Measured values: patent US20240108006A1, “PESTICIDALLY ACTIVE HETEROAROMATIC COMPOUNDS” (SYNGENTA CROP PROTECTION AG, priority 2021, published 2024)

Key:
Assay type in all cases: in vivo
Chilo suppressalis = experiment: Example B1: Chilo suppressalis (striped rice stemborer), artificial diet, L2 larvae; conditions: 144 h, application rate of 200 ppm, 6 days after infestation, read-out: control in at least one of the three categories (mortality, anti-feedant effect, or growth inhibition)
In short: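 Artificial diet was treated with aqueous test solutions made from 10,000 ppm DMSO stocks, dried, then infested with L2 larvae (6-8 per well). Mortality, anti-feeding effect and growth inhibition were scored against untreated samples 6 days after infestation, and control was counted when any category exceeded untreated.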

Diabrotica balteata = experiment: Example B2: Diabrotica balteata (corn root worm), maize sprouts, L2 larvae; conditions: 96 h, application rate of 200 ppm, 4 days after infestation, read-out: control in at least one of the two categories (mortality or growth inhibition)
Experimental: Example B2: Diabrotica balteata (Corn Root Worm)
Maize sprouts placed onto an agar layer in 24-well microtiter plates were treated with aqueous test solutions prepared from 10,000 ppm DMSO stock solutions by spraying. After drying, the plates were infested with L2 larvae (6 to 10 per well). The samples were assessed for mortality and growth inhibition in comparison to untreated samples 4 days after infestation.
(§1) The following compounds gave an effect of at least 80% control in at least one of the two categories (mortality or growth inhibition) at an application rate of 200 ppm: […]

Spodoptera littoralis = experiment: Example B9: Spodoptera littoralis (Egyptian cotton leaf worm), cotton leaf discs, L1 larvae; conditions: foliar, 72 h, application rate of 200 ppm, 3 days after infestation, read-out: control in at least one of the three categories (mortality, anti-feedant effect, or growth inhibition)
In short: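 Cotton leaf discs on agar sprayed with aqueous test solutions from 10,000 ppm DMSO stocks, dried, then infested with five L1 larvae. Mortality, anti-feeding and growth inhibition scored against untreated samples 3 days after infestation.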

Plutella xylostella = experiment: Example B8: Plutella xylostella (diamond back moth), artificial diet 24-well, eggs; conditions: 192 h, application rate of 200 ppm, 8 days after infestation, read-out: effect in at least one of the two categories (mortality or growth inhibition)
In short: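 Artificial diet in 24-well plates treated with aqueous dilutions of DMSO stock (10,000 ppm stock) and dried, then infested with Plutella eggs. Mortality and growth inhibition scored versus untreated samples 8 days after infestation.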

Euschistus heros = experiment: Example B3: Euschistus heros (neotropical brown stink bug), soybean leaves, N2 nymphs; conditions: 120 h, application rate of 200 ppm, 5 days after infestation, read-out: control in at least one of the two categories (mortality or growth inhibition)
Experimental: Example B3: Euschistus heros (Neotropical Brown Stink Bug)
Soybean leaves on agar in 24-well microtiter plates were sprayed with aqueous test solutions prepared from 10,000 ppm DMSO stock solutions. After drying the leaves were infested with N2 nymphs. The samples were assessed for mortality and growth inhibition in comparison to untreated samples 5 days after infestation.
as §1

Myzus persicae [1] = experiment: Example B7: Myzus persicae (green peach aphid), intrinsic activity, sucrose solution 24-well; conditions: 120 h, application rate of 12.5 ppm, 5 days after infestation, read-out: control (mortality)
In short: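 Compounds from 10,000 ppm DMSO stocks were mixed into sucrose solution in wells at a rate of 12.5 ppm. Aphid-infested pea seedlings were placed on a Parafilm membrane over the solution, so aphids fed through it. Mortality was scored 5 days after infestation.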

Myzus persicae [2] = experiment: Example B5: Myzus persicae (green peach aphid), feeding/contact activity; conditions: 144 h, application rate of 200 ppm, 6 days after infestation
Experimental: Example B5: Myzus persicae (Green Peach Aphid):Feeding/Contact Activity
Sunflower leaf discs were placed onto agar in a 24-well microtiter plate and sprayed with aqueous test solutions prepared from 10,000 ppm DMSO stock solutions. After drying, the leaf discs were infested with an aphid population of mixed ages. The samples were assessed for mortality 6 days after infestation.

CC(NC(=O)Nc1ccc(C(F)(F)F)cc1C(F)(F)F)c1ncnn1-c1ncccn1 (centres unmarked) [Example P1, 1-[2,4-bis(trifluoromethyl)phenyl]-3-[1-(2-pyrimidin-2-yl-1,2,4-triazol-3-yl)ethyl]urea]
≥ 80%: percent control (mortality, anti-feedant effect or growth inhibition) at 200 ppm (Chilo suppressalis) | percent control (mortality or growth inhibition) at 200 ppm (Diabrotica balteata) | percent control (mortality, anti-feedant effect or growth inhibition) at 200 ppm (Spodoptera littoralis) | percent effect (mortality or growth inhibition) at 200 ppm (Plutella xylostella) | percent control (mortality or growth inhibition) at 200 ppm (Euschistus heros) | mortality at 12.5 ppm (Myzus persicae [1])

C[C@H](NC(=O)Nc1ccc(C(F)(F)F)nc1Cl)c1ncnn1-c1ncccn1 [Example P18, 1-[2-chloro-6-(trifluoromethyl)-3-pyridyl]-3-[(1S)-1-(2-pyrimidin-2-yl-1,2,4-triazol-3-yl)ethyl]urea]
≥ 80%: percent control (mortality, anti-feedant effect or growth inhibition) at 200 ppm (Spodoptera littoralis) | percent control (mortality or growth inhibition) at 200 ppm (Euschistus heros) | mortality at 12.5 ppm (Myzus persicae [1])

C[C@H](NC(=O)Nc1cnc(Br)cc1Br)c1ncnn1-c1ncccn1 [Example P55, 1-(4,6-dibromo-3-pyridyl)-3-[(1S)-1-(2-pyrimidin-2-yl-1,2,4-triazol-3-yl)ethyl]urea]
≥ 80%: percent control (mortality, anti-feedant effect or growth inhibition) at 200 ppm (Chilo suppressalis) | percent control (mortality, anti-feedant effect or growth inhibition) at 200 ppm (Spodoptera littoralis) | percent effect (mortality or growth inhibition) at 200 ppm (Plutella xylostella) | percent control (mortality or growth inhibition) at 200 ppm (Euschistus heros) | mortality at 12.5 ppm (Myzus persicae [1])

C[C@H](NC(=O)Nc1ccc(C(F)(F)F)cc1I)c1ncnn1-c1ncccn1 [Example P72, 1-[2-iodo-4-(trifluoromethyl)phenyl]-3-[(1S)-1-(2-pyrimidin-2-yl-1,2,4-triazol-3-yl)ethyl]urea]
≥ 80%: percent control (mortality, anti-feedant effect or growth inhibition) at 200 ppm (Chilo suppressalis) | percent control (mortality, anti-feedant effect or growth inhibition) at 200 ppm (Spodoptera littoralis) | percent effect (mortality or growth inhibition) at 200 ppm (Plutella xylostella) | percent control (mortality or growth inhibition) at 200 ppm (Euschistus heros) | mortality at 12.5 ppm (Myzus persicae [1])

C[C@@H](c1ncnn1-c1ncccn1)N(C)C(=O)N(C)c1cc(OC(F)(F)C(F)F)c(Cl)cc1Cl [Example P132, 1-[2,4-dichloro-5-(1,1,2,2-tetrafluoroethoxy)phenyl]-1,3-dimethyl-3-[(1S)-1-(2-pyrimidin-2-yl-1,2,4-triazol-3-yl)ethyl]urea]
≥ 80%: mortality at 200 ppm (Myzus persicae [2]) | percent control (mortality, anti-feedant effect or growth inhibition) at 200 ppm (Chilo suppressalis) | percent control (mortality or growth inhibition) at 200 ppm (Diabrotica balteata) | percent control (mortality, anti-feedant effect or growth inhibition) at 200 ppm (Spodoptera littoralis) | percent effect (mortality or growth inhibition) at 200 ppm (Plutella xylostella) | mortality at 12.5 ppm (Myzus persicae [1])

C[C@@H](c1ncnn1-c1ncccn1)N(C)C(=O)Nc1cc(OC(F)(F)C(F)F)c(Cl)cc1Cl [Example P133, 3-[2,4-dichloro-5-(1,1,2,2-tetrafluoroethoxy)phenyl]-1-methyl-1-[(1S)-1-(2-pyrimidin-2-yl-1,2,4-triazol-3-yl)ethyl]urea]
≥ 80%: mortality at 200 ppm (Myzus persicae [2]) | percent control (mortality, anti-feedant effect or growth inhibition) at 200 ppm (Chilo suppressalis) | percent control (mortality or growth inhibition) at 200 ppm (Diabrotica balteata) | percent control (mortality, anti-feedant effect or growth inhibition) at 200 ppm (Spodoptera littoralis) | percent effect (mortality or growth inhibition) at 200 ppm (Plutella xylostella) | mortality at 12.5 ppm (Myzus persicae [1])

C[C@H](NC(=O)Nc1cc(OC(F)(F)C(F)F)c(Cl)cc1Cl)c1nccnc1-c1ncccn1 [Example P135, 1-[2,4-dichloro-5-(1,1,2,2-tetrafluoroethoxy)phenyl]-3-[(1S)-1-(3-pyrimidin-2-ylpyrazin-2-yl)ethyl]urea]
≥ 80%: mortality at 200 ppm (Myzus persicae [2]) | percent control (mortality, anti-feedant effect or growth inhibition) at 200 ppm (Chilo suppressalis) | percent control (mortality or growth inhibition) at 200 ppm (Diabrotica balteata) | percent control (mortality, anti-feedant effect or growth inhibition) at 200 ppm (Spodoptera littoralis) | percent effect (mortality or growth inhibition) at 200 ppm (Plutella xylostella) | mortality at 12.5 ppm (Myzus persicae [1])

C[C@@H](c1ncnn1-c1ncccn1)N1COCN(c2cc(OC(F)(F)C(F)F)c(Cl)cc2Cl)C1=O [Example P137, 3-[2,4-dichloro-5-(1,1,2,2-tetrafluoroethoxy)phenyl]-5-[(1S)-1-(2-pyrimidin-2-yl-1,2,4-triazol-3-yl)ethyl]-1,3,5-oxadiazinan-4-one]
≥ 80%: mortality at 200 ppm (Myzus persicae [2]) | percent control (mortality, anti-feedant effect or growth inhibition) at 200 ppm (Chilo suppressalis) | percent control (mortality or growth inhibition) at 200 ppm (Diabrotica balteata) | percent control (mortality, anti-feedant effect or growth inhibition) at 200 ppm (Spodoptera littoralis) | percent effect (mortality or growth inhibition) at 200 ppm (Plutella xylostella) | mortality at 12.5 ppm (Myzus persicae [1])

C[C@H](NC(=O)N(C)c1cc(OC(F)(F)C(F)F)c(Cl)cc1Cl)c1ncnn1-c1ncccn1 [Example P176, 1-[2,4-dichloro-5-(1,1,2,2-tetrafluoroethoxy)phenyl]-1-methyl-3-[(1S)-1-(2-pyrimidin-2-yl-1,2,4-triazol-3-yl)ethyl]urea]
≥ 80%: mortality at 200 ppm (Myzus persicae [2]) | percent control (mortality, anti-feedant effect or growth inhibition) at 200 ppm (Chilo suppressalis) | percent control (mortality or growth inhibition) at 200 ppm (Diabrotica balteata) | percent control (mortality, anti-feedant effect or growth inhibition) at 200 ppm (Spodoptera littoralis) | percent effect (mortality or growth inhibition) at 200 ppm (Plutella xylostella) | mortality at 12.5 ppm (Myzus persicae [1])

C[C@H](NC(=O)Nc1cc(C#N)c(Cl)cc1F)c1ncnn1-c1ncccn1 [Example P182, 1-(4-chloro-5-cyano-2-fluoro-phenyl)-3-[(1S)-1-(2-pyrimidin-2-yl-1,2,4-triazol-3-yl)ethyl]urea]
≥ 80%: percent control (mortality, anti-feedant effect or growth inhibition) at 200 ppm (Chilo suppressalis) | percent control (mortality, anti-feedant effect or growth inhibition) at 200 ppm (Spodoptera littoralis) | percent effect (mortality or growth inhibition) at 200 ppm (Plutella xylostella) | percent control (mortality or growth inhibition) at 200 ppm (Euschistus heros) | mortality at 12.5 ppm (Myzus persicae [1])

C[C@H](NC(=O)Nc1cc(C(F)(F)F)c(Br)cc1Br)c1ncnn1-c1ncccn1 [Example P205, 1-[2,4-dibromo-5-(trifluoromethyl)phenyl]-3-[(1S)-1-(2-pyrimidin-2-yl-1,2,4-triazol-3-yl)ethyl]urea]
≥ 80%: mortality at 200 ppm (Myzus persicae [2]) | percent control (mortality, anti-feedant effect or growth inhibition) at 200 ppm (Chilo suppressalis) | percent control (mortality or growth inhibition) at 200 ppm (Diabrotica balteata) | percent control (mortality, anti-feedant effect or growth inhibition) at 200 ppm (Spodoptera littoralis) | percent effect (mortality or growth inhibition) at 200 ppm (Plutella xylostella) | mortality at 12.5 ppm (Myzus persicae [1])

C[C@H](NC(=O)Nc1cc(C(F)(F)F)c(Cl)cc1Br)c1nccnc1-c1ccc(C#N)cn1 [Example P246, 1-[2-bromo-4-chloro-5-(trifluoromethyl)phenyl]-3-[(1S)-1-[3-(5-cyano-2-pyridyl)pyrazin-2-yl]ethyl]urea]
≥ 80%: percent control (mortality or growth inhibition) at 200 ppm (Diabrotica balteata) | percent control (mortality, anti-feedant effect or growth inhibition) at 200 ppm (Spodoptera littoralis) | percent control (mortality or growth inhibition) at 200 ppm (Euschistus heros)

C[C@H](NC(=O)Nc1cnc(Br)cc1Br)c1ncnn1-c1ccc(C#N)cn1 [Example P255, 1-[(1S)-1-[2-(5-cyano-2-pyridyl)-1,2,4-triazol-3-yl]ethyl]-3-(4,6-dibromo-3-pyridyl)urea]
≥ 80%: percent control (mortality, anti-feedant effect or growth inhibition) at 200 ppm (Chilo suppressalis) | percent control (mortality, anti-feedant effect or growth inhibition) at 200 ppm (Spodoptera littoralis) | percent effect (mortality or growth inhibition) at 200 ppm (Plutella xylostella) | percent control (mortality or growth inhibition) at 200 ppm (Euschistus heros)

C[C@H](NC(=O)Nc1cc(OC(F)(F)C(F)F)c(Cl)cc1Cl)c1ncnn1-c1ccc(=O)n(C)n1 [Example P269, 1-[2,4-dichloro-5-(1,1,2,2-tetrafluoroethoxy)phenyl]-3-[(1S)-1-[2-(1-methyl-6-oxo-pyridazin-3-yl)-1,2,4-triazol-3-yl]ethyl]urea]
≥ 80%: percent control (mortality or growth inhibition) at 200 ppm (Diabrotica balteata) | percent control (mortality, anti-feedant effect or growth inhibition) at 200 ppm (Spodoptera littoralis) | percent control (mortality or growth inhibition) at 200 ppm (Euschistus heros) | mortality at 12.5 ppm (Myzus persicae [1])

C[C@H](NC(=O)Nc1cc(OC(F)(F)C(F)F)c(Cl)cc1Cl)c1ncnn1-c1cnccn1 [Example P278, 1-[2,4-dichloro-5-(1,1,2,2-tetrafluoroethoxy)phenyl]-3-[(1S)-1-(2-pyrazin-2-yl-1,2,4-triazol-3-yl)ethyl]urea]
≥ 80%: mortality at 200 ppm (Myzus persicae [2]) | percent control (mortality, anti-feedant effect or growth inhibition) at 200 ppm (Chilo suppressalis) | percent control (mortality or growth inhibition) at 200 ppm (Diabrotica balteata) | percent control (mortality, anti-feedant effect or growth inhibition) at 200 ppm (Spodoptera littoralis) | percent effect (mortality or growth inhibition) at 200 ppm (Plutella xylostella) | mortality at 12.5 ppm (Myzus persicae [1])

C[C@H](NC(=O)Nc1cc(C#N)c(F)cc1F)c1ncnn1-c1ncccn1 [Example P391, 1-(5-cyano-2,4-difluoro-phenyl)-3-[(1S)-1-(2-pyrimidin-2-yl-1,2,4-triazol-3-yl)ethyl]urea]
≥ 80%: percent control (mortality, anti-feedant effect or growth inhibition) at 200 ppm (Chilo suppressalis) | percent control (mortality or growth inhibition) at 200 ppm (Euschistus heros) | mortality at 12.5 ppm (Myzus persicae [1])
